Assay results: patent US12291518B2, “Thyroid hormone receptor agonists and use thereof” (Eccogene Inc., priority 2020, dated 2025)

Key:
THR beta-LBD = target: T1, THR beta-LBD (Homo sapiens, UniProt P10828); test: THR-β Coactivator Peptide Recruitment Assay (LanthaScreen TR-FRET); assay type: biochemical; details: TR-FRET coactivator recruitment, THR beta-LBD 0.5 nM; for EC50: read-out: THRβ EC50
T1 construct: THR beta-LBD (the final concentration is 0.5 nM) was added to the 384-well assay plate; purchased Invitrogen PV4686
T1 sequence (P10828 217-461 limits assumed): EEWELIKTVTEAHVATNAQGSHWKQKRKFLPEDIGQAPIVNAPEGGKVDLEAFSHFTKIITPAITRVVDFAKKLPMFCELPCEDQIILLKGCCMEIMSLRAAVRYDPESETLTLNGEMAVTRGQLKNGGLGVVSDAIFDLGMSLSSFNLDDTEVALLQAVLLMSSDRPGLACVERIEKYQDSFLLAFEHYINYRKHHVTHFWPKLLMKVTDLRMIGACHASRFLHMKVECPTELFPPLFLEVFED
Procedure: (§1) A time-resolved FRET (TR-FRET) assay was used to test representative compounds of the application.
(§2) THR-β Coactivator Peptide Recruitment Assay were conducted by using Invitrogen's LanthaScreen™ TR-FRET Thyroid Receptor beta Assay Kit (Catalog no. PV4686). Binding of an agonist to the nuclear receptor causes a subsequent binding of a coactivator peptide, resulting in fluorescence energy transfer from the labelled nuclear receptor to the proximal coactivator peptide, which reflects the binding affinity of the agonist and the nuclear receptor. The assay was conducted by following the manufacturer's instructions. Briefly, THR beta-LBD (the final concentration is 0.5 nM) was added to the 384-well assay plate containing test compounds, followed by addition of Fluorescein-SRC2-2 coactivator peptide and terbium (Tb)-labeled anti-GST antibody. The final concentration of THR beta-LBD, Fluorescein-SRC2-2 coactivator peptide and terbium (Tb)-labeled anti-GST antibody is 0.5 nM, 0.1 nM and 2 nM, respectively. After a gentle mix and incubation at room temperature for 2 h, the signal was read on the EnVision Multilabel Plate Reader at wavelengths of 520 nm and 495 nm. TR-FRET ratio was calculated by dividing the emission signal at 520 nm and the emission signal at 495 nm, and then was plotted against a sigmoidal dose response curve (four parameters, GraphPad™ Prism 8) to determine the EC50 value.

THR alpha-LBD = target: T2, THR alpha-LBD (Homo sapiens, UniProt P10827); test: THR-α Coactivator Peptide Recruitment Assay (LanthaScreen TR-FRET); assay type: biochemical; details: TR-FRET coactivator recruitment, THR alpha-LBD 0.25 nM; for EC50: read-out: THRα EC50
T2 construct: except that THR alpha-LBD of a final concentration 0.25 nM was used; purchased Invitrogen PV4687
T2 sequence (P10827 163-410 isoform P10827-2 limits assumed, other chains not shown): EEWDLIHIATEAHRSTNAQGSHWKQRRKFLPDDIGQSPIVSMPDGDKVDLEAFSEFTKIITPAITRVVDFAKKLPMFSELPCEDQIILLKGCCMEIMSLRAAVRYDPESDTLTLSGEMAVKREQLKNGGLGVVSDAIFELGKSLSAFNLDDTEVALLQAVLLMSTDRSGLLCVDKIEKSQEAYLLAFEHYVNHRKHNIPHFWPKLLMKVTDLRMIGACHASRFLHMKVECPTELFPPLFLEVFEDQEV
Procedure: as §1, §2
THR-α Coactivator Peptide Recruitment Assay were conducted by using Invitrogen's LanthaScreen™ TR-FRET Thyroid Receptor alpha Assay Kit (Catalog no. PV4687), following the same method described above except that THR alpha-LBD of a final concentration 0.25 nM was used.

Row | SMILES | THRβ Emax (THR beta-LBD) | EC50 (THR beta-LBD) [nM] | THRα Emax (THR alpha-LBD) | EC50 (THR alpha-LBD) [nM]
1 | CO[C@H]1C[C@@H](NS(=O)(=O)c2cc(Oc3c(Cl)cc(-n4nc(C(F)F)c(=O)[nH]c4=O)cc3Cl)ccc2O)C1 [Compound 37, 5-(2,6-dichloro-4-(6-(difluoromethyl)-3,5-dioxo-4,5-dihydro-1,2,4-triazin-2(3H)-yl)phenoxy)-2-hydroxy-N-((1s,3s)-3-methoxycyclobutyl)benzenesulfonamide] | B (75~90) | 2 to 20 | A (85~110) | 2 to 200
2 | O=C(N1CCC1)C1(NS(=O)(=O)c2cc(Oc3c(Cl)cc(-n4nc(C(F)F)c(=O)[nH]c4=O)cc3Cl)ccc2O)CC1 [Compound 38, N-(1-(azetidine-1-carbonyl)cyclopropyl)-5-(2,6-dichloro-4-(6-(difluoromethyl)-3,5-dioxo-4,5-dihydro-1,2,4-triazin-2(3H)-yl)phenoxy)-2-hydroxybenzenesulfonamide] | B (75~90) | 2 to 20 | A (85~110) | 2 to 200
3 | CS(=O)(=O)[C@H]1CCN(S(=O)(=O)c2cc(Oc3c(Cl)cc(-n4nc(C(F)F)c(=O)[nH]c4=O)cc3Cl)ccc2O)C1 [Compound 39, (S)-2-(3,5-dichloro-4-(4-hydroxy-3-((3-(methylsulfonyl)pyrrolidin-1-yl)sulfonyl)phenoxy)phenyl)-6-(difluoromethyl)-1,2,4-triazine-3,5(2H,4H)-dione] | C (<75) | < 2 | B (40~85) | 2 to 200
4 | O=c1[nH]c(=O)n(-c2cc(Cl)c(Oc3ccc(O)c(S(=O)(=O)N4CC(O)C4)c3)c(Cl)c2)nc1C(F)F [Compound 40, 2-[3,5-dichloro-4-[4-hydroxy-3-(3-hydroxyazetidin-1-yl)sulfonyl-phenoxy]phenyl]-6-(difluoromethyl)-1,2,4-triazine-3,5-dione] | B (75~90) | < 2 | A (85~110) | 2 to 200
5 | C[C@@H](CO)NS(=O)(=O)c1cc(Oc2c(Cl)cc(-n3nc(C(F)F)c(=O)[nH]c3=O)cc2Cl)ccc1O [Compound 41, (S)-5-(2,6-dichloro-4-(6-(difluoromethyl)-3,5-dioxo-4,5-dihydro-1,2,4-triazin-2(3H)-yl)phenoxy)-2-hydroxy-N-(1-hydroxypropan-2-yl)benzenesulfonamide] | B (75~90) | < 2 | A (85~110) | 2 to 200
6 | O=c1[nH]c(=O)n(-c2cc(Cl)c(Oc3ccc(O)c(S(=O)(=O)NC[C@H]4C[C@H](O)C4)c3)c(Cl)c2)nc1C(F)F [Compound 43, 5-(2,6-dichloro-4-(6-(difluoromethyl)-3,5-dioxo-4,5-dihydro-1,2,4-triazin-2(3H)-yl)phenoxy)-2-hydroxy-N-(((1r,3r)-3-hydroxycyclobutyl)methyl)benzenesulfonamide] | A (90~110) | 2 to 20 | A (85~110) | 2 to 200
7 | O=c1[nH]c(=O)n(-c2cc(Cl)c(Oc3ccc(O)c(S(=O)(=O)NC[C@H]4C[C@@H](O)C4)c3)c(Cl)c2)nc1C(F)F [Compound 44, 5-(2,6-dichloro-4-(6-(difluoromethyl)-3,5-dioxo-4,5-dihydro-1,2,4-triazin-2(3H)-yl)phenoxy)-2-hydroxy-N-(((1s,3s)-3-hydroxycyclobutyl)methyl)benzenesulfonamide] | B (75~90) | 2 to 20 | A (85~110) | 2 to 200
8 | C[C@H](CO)NS(=O)(=O)c1cc(Oc2c(Cl)cc(-n3nc(C(F)F)c(=O)[nH]c3=O)cc2Cl)ccc1O [Compound 45, (R)-5-(2,6-dichloro-4-(6-(difluoromethyl)-3,5-dioxo-4,5-dihydro-1,2,4-triazin-2(3H)-yl)phenoxy)-2-hydroxy-N-(1-hydroxypropan-2-yl)benzenesulfonamide] | B (75~90) | < 2 | A (85~110) | 2 to 200
9 | CS(=O)(=O)N[C@H]1CCN(S(=O)(=O)c2cc(Oc3c(Cl)cc(-n4nc(C(F)F)c(=O)[nH]c4=O)cc3Cl)ccc2O)C1 [Compound 46, N-[(3S)-1-[5-[2,6-dichloro-4-[6-(difluoromethyl)-3,5-dioxo-1,2,4-triazin-2-yl]phenoxy]-2-hydroxy-phenyl]sulfonylpyrrolidin-3-yl]methanesulfonamide] | B (75~90) | < 2 | B (40~85) | 2 to 200
10 | CS(=O)(=O)N[C@@H]1CCN(S(=O)(=O)c2cc(Oc3c(Cl)cc(-n4nc(C(F)F)c(=O)[nH]c4=O)cc3Cl)ccc2O)C1 [Compound 47, (R)-N-(1-((5-(2,6-dichloro-4-(6-(difluoromethyl)-3,5-dioxo-4,5-dihydro-1,2,4-triazin-2(3H)-yl)phenoxy)-2-hydroxyphenyl)sulfonyl)pyrrolidin-3-yl)methanesulfonamide] | C (<75) | 2 to 20 | B (40~85) | 2 to 200
11 | O=c1[nH]c(=O)n(-c2cc(Cl)c(Oc3ccc(O)c(S(=O)(=O)N[C@@H]4CCN(S(=O)(=O)C5CC5)C4)c3)c(Cl)c2)nc1C(F)F [Compound 48, (R)-N-(1-(cyclopropylsulfonyl)pyrrolidin-3-yl)-5-(2,6-dichloro-4-(6-(difluoromethyl)-3,5-dioxo-4,5-dihydro-1,2,4-triazin-2(3H)-yl)phenoxy)-2-hydroxybenzenesulfonamide] | C (<75) | 2 to 20 | B (40~85) | 200 to 1000
12 | O=c1[nH]c(=O)n(-c2cc(Cl)c(Oc3ccc(O)c(S(=O)(=O)N[C@H]4CCN(S(=O)(=O)C5CC5)C4)c3)c(Cl)c2)nc1C(F)F [Compound 49, (S)-N-(1-(cyclopropylsulfonyl)pyrrolidin-3-yl)-5-(2,6-dichloro-4-(6-(difluoromethyl)-3,5-dioxo-4,5-dihydro-1,2,4-triazin-2(3H)-yl)phenoxy)-2-hydroxybenzenesulfonamide] | C (<75) | 2 to 20 | C (<40) | 200 to 1000
13 | CS(=O)(=O)N1CC[C@H](NS(=O)(=O)c2cc(Oc3c(Cl)cc(-n4nc(C(F)F)c(=O)[nH]c4=O)cc3Cl)ccc2O)C1 [Compound 50, (S)-5-(2,6-dichloro-4-(6-(difluoromethyl)-3,5-dioxo-4,5-dihydro-1,2,4-triazin-2(3H)-yl)phenoxy)-2-hydroxy-N-(1-(methylsulfonyl)pyrrolidin-3-yl)benzenesulfonamide] | C (<75) | 2 to 20 | B (40~85) | 200 to 1000
14 | CS(=O)(=O)N1CC[C@@H](NS(=O)(=O)c2cc(Oc3c(Cl)cc(-n4nc(C(F)F)c(=O)[nH]c4=O)cc3Cl)ccc2O)C1 [Compound 51, (R)-5-(2,6-dichloro-4-(6-(difluoromethyl)-3,5-dioxo-4,5-dihydro-1,2,4-triazin-2(3H)-yl)phenoxy)-2-hydroxy-N-(1-(methylsulfonyl)pyrrolidin-3-yl)benzenesulfonamide] | C (<75) | 2 to 20 | B (40~85) | 200 to 1000
